Counter-ions that a name gives are not always drawn. Like-named read-outs stand apart in the source and are kept apart here.
How the values were obtained:
[1] = target: T1, α7-subtype of nicotinic receptors (Rattus norvegicus, UniProt Q05941); assay: In vitro inhibition of 3H-α-bungarotoxine binding in rat brain; details: rat cerebral cortex homogenate, 2 hours at 37° C., read-out: IC50 (concentration of the test substance which inhibits the specific binding of 3H-α-bungarotoxine by 50%)
T1 construct: Cerebral cortices from male Wistar rats (150-250 g) are homogenised; from tissue; host or cells: rat cerebral cortex membrane homogenate (male Wistar rats)
T1 sequence (Q05941 23-502): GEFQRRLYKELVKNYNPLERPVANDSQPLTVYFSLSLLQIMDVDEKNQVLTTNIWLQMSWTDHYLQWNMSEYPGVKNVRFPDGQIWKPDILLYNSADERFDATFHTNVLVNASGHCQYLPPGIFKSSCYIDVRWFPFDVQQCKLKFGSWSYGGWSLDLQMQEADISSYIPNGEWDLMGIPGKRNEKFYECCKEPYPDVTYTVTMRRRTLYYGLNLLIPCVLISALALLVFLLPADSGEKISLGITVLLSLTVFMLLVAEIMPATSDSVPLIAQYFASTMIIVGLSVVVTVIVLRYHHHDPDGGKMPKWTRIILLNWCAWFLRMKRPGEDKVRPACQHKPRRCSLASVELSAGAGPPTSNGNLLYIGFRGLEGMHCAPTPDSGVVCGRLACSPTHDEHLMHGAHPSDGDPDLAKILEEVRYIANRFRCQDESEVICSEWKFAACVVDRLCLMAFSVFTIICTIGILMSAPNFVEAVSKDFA

Row | SMILES | melting point | IC50 ([1]; 3H-α-bungarotoxine 2 nM) | IC50 ([1]; […])
1 | CN1C2CCC1CN(c1ccc(-c3ccccc3)nn1)C2 | 151 °C |  | 
2 | CN1C2CCC1CN(c1ccc(-c3ccc(F)cc3)nn1)C2 | 164 to 165 °C |  | 
3 | CN1C2CCC1CN(c1ccc(-c3ccccc3)cn1)C2 | 110.5 °C |  | 
4 | COc1ccccc1-c1ccc(N2CC3CCC(C2)N3C)nn1 | 170 to 172 °C |  | 
5 | COc1cccc(-c2ccc(N3CC4CCC(C3)N4C)nn2)c1 | 92 to 97 °C |  | 
6 | CN1C2CCC1CN(c1ccc(-c3cccc(Cl)c3)nn1)C2 | 159 °C |  | 
7 | CN1C2CCC1CN(c1ccc(-c3ccc(Cl)cc3)nn1)C2 | 180 °C |  | 
8 | CN1C2CCC1CN(c1ccc(-c3cccnc3)nn1)C2 | 131 to 133 °C |  | 
9 | COc1ccc(-c2ccc(N3CC4CCC(C3)N4C)nn2)cc1 | 154 to 155 °C |  | 
10 | CN1C2CCC1CN(c1nnc(-c3ccccc3)s1)C2 (as salt: fumaric acid salt) | 192 to 200 °C |  | 
11 | CN1C2CCC1CN(c1nnc(-c3ccccc3)o1)C2 (as salt: fumaric acid salt) | 170 to 191 °C |  | 
12 | CN1C2CCC1CN(c1cccc(-c3ccccc3)n1)C2 (as salt: fumaric acid salt) | 159 to 160 °C |  | 
13 | CN1C2CCC1CN(c1ccc(-c3ccccc3N)nn1)C2 (as salt: fumaric acid salt) | 186 to 195 °C |  | 
14 | CC(=O)Nc1ccccc1-c1ccc(N2CC3CCC(C2)N3C)nn1 (as salt: fumaric acid salt) | 219 to 222 °C |  | 
15 | CN1C2CCC1CN(c1ccc(-c3ccccc3Cl)nn1)C2 (as salt: fumaric acid salt) | 192 to 200 °C |  | 
16 | COc1ccc2cc(-c3ccc(N4CC5CCC(C4)N5C)nn3)ccc2c1 (as salt: fumaric acid salt) | 242 °C |  | 
17 | CN1C2CCC1CN(c1ccc(-c3cccs3)nn1)C2 [Compound E1, 8-Methyl-3-(6-thiophen-2-yl-pyridazin-3-yl)-3,8-diaza-bicyclo[3.2.1]octane] | 156 °C | < 1 µM | 
18 | CN1C2CCC1CN(c1ccc(-c3ccsc3)nn1)C2 [Compound E2, 8-Methyl-3-(6-thiophen-3-yl-pyridazin-3-yl)-3,8-diaza-bicyclo[3.2.1]octane] | 172 to 173 °C | < 1 µM | 
19 | CN1C2CCC1CN(c1ccc(-c3ccco3)nn1)C2 [Compound E3, 3-(6-Furan-2-yl-pyridazin-3-yl)-8-methyl-3,8-diaza-bicyclo[3.2.1]octane] | 144 °C | < 1 µM | 
20 | CN1C2CCC1CN(c1ccc(-c3ccoc3)nn1)C2 [Compound E5, 3-(6-Furan-3-yl-pyridazin-3-yl)-8-methyl-3,8-diaza-bicyclo[3.2.1]octane] | 152 °C | < 1 µM | 
21 | CN1C2CCC1CN(c1ccc(-c3cccc(N)c3)nn1)C2 [Compound E7, 3-[6-(8-Methyl-3,8-diaza-bicyclo[3.2.1]oct-3-yl)-pyridazin-3-yl]-phenylamine] | 164 °C | < 1 µM | 
22 | CC(=O)Nc1cccc(-c2ccc(N3CC4CCC(C3)N4C)nn2)c1 [Compound E8, N-{3-[6-(8-Methyl-3,8-diaza-bicyclo[3.2.1]oct-3-yl)-pyridazin-3-yl]-phenyl}-acetamide] | 74 °C |  | < 1 µM
23 | CN1C2CCC1CN(c1ccc(-c3ccccc3F)nn1)C2 [Compound E9, 3-[6-(2-Fluoro-phenyl)-pyridazin-3-yl]-8-methyl-3,8-diaza-bicyclo[3.2.1]octane] | 152 °C |  | < 1 µM
24 | CN1C2CCC1CN(c1ccc(-c3cccc(F)c3)nn1)C2 [Compound E11, 3-[6-(3-Fluoro-phenyl)-pyridazin-3-yl]-8-methyl-3,8-diaza-bicyclo[3.2.1]octane] | 149 to 150 °C | < 1 µM | 
